Data from US9585877B2, “Methods of maintaining, treating or improving cognitive function” (Forum Pharmaceuticals, Inc., priority 2012, dated 2017).

What was measured:
Assay type in all cases: in vivo, human
[1] = test system: subjects with mild-to-moderate Alzheimer's disease; assay: Clinical study, Controlled Oral Word Association Test (COWAT); settings: 2 mg dose versus Placebo
Procedure: (§1) A double-blind study of 3 doses of the Test Composition or placebo in subjects with mild-to-moderate Alzheimer's disease, with or without receiving a concomitant AChEI for 24 weeks (168 days) after a 7 day placebo run-in period.
(§2) Total number of subjects in the safety population was 409 subjects that were dosed once-daily with a dosing-capsule for a period of 168 days. The subjects dosed, and the particular dosing, included: 104 subjects dosed with Placebo capsule; and 305 subjects dosed with Test Compound (104 subjects with 0.3 mg capsules; 101 subjects with 1 mg capsules; and 100 subjects with 2 mg capsules).
The population included generally healthy male or female subjects, aged 50 to ≦85 years, with mild-to-moderate Alzheimer's disease, consistent with criteria defined by a Work Group of the National Institute of Neurological and Communicative Disorders and Stroke—Alzheimer's Disease and Related Disorders Association, of mild to moderate severity, with a Mini-Mental State Examination score (MMSE) 14 and ≦24, and a Clinical Dementia Rating Scale Sum of the Boxes (CDR-SB) score of 2. […]
The COWAT test includes (1) asking the subject to name words beginning with a specific letter (e.g., F, A, S), (2) each of 3 trials is timed for 60 seconds, and (3) the score is calculated by the number of new words beginning with the assigned letter.

[2] = test system: subjects with mild-to-moderate Alzheimer's disease; assay: Clinical study, Clinical Dementia Rating-Sum of Boxes (CDR-SB)
Procedure: as §1, §2
(§3) The population included generally healthy male or female subjects, aged 50 to ≦85 years, with mild-to-moderate Alzheimer's disease, consistent with criteria defined by a Work Group of the National Institute of Neurological and Communicative Disorders and Stroke—Alzheimer's Disease and Related Disorders Association, of mild to moderate severity, with a Mini-Mental State Examination score (MMSE) 14 and ≦24, and a Clinical Dementia Rating Scale Sum of the Boxes (CDR-SB) score of 2. […] Subjects were required to be either receiving a stable dose of an AChEI (donepezil or rivastigmine) for at least 3 months before screening or not presently being treated with an AChEI or mementine for at least 30 days.
(§4) Subjects with mild to moderate Alzheimer's disease receiving stable treatment with an AChEI (donepezil or rivastigmine: ‘add-on’ subjects) or not receiving an AChEI (de novo subjects′) received 0.3, 1, or 2 mg doses of Test Composition or placebo for up to 24 weeks (168 days) of double-blind treatment, after a 7-day single-blind, placebo run-in period to assess study drug compliance. A follow-up telephone contact was conducted approximately 15 days after the last dose of study drug for questions regarding safety.
Clinical Dementia Rating-Sum of Boxes CDR-SB
The CDR-SB test employed herein is based on the procedure developed by Hughs C D, Berg L, Danziger W L, Coben L A, and Martin R L. “A new clinical scale for the staging of dementia”; Br J Psychiatry. 1982; 140:566-572, and provides an assessment of six (6) dimensions: Memory, Orientation, Judgment and Problem Solving, Community Affairs, Home and Hobbies, and Personal Care.
Each of the six CDR dimensions are scored separately with well-defined anchors from 0 to 3.0 (no impairment to severe illness). The total sum of boxes ranges from 0 to 18. Higher totals indicate more severe impairment. A decrease from baseline indicates improvement.

[3] = test system: subjects with mild-to-moderate Alzheimer's disease; assay: Clinical study, ADAS-Cog-13
Procedure: as §1, §2, §3, §4
Cognitive Part of the Alzheimer's Disease Assessment Scale (ADAS-Cog-13)
The ADAS-Cog-13 is identical to the ADAS-Cog-11 assessment group (see above), with the addition of test items: Delayed Word Recall, and Digit (Number) Cancellation.
The ADAS-cog-13 total score ranges from 0 to 85 (higher scores indicate more severe impairment). A decrease from baseline indicates improvement.

[4] = Add-On patients (stable donepezil or rivastigmine), 0.3 mg daily dose, Week 4
[5] = Add-On patients (stable donepezil or rivastigmine), 0.3 mg daily dose, Week 12
[6] = Add-On patients (stable donepezil or rivastigmine), 0.3 mg daily dose, Week 18
[7] = Add-On patients (stable donepezil or rivastigmine), 0.3 mg daily dose, Week 23
[8] = Add-On patients (stable donepezil or rivastigmine), 1 mg daily dose, Week 4
[9] = Add-On patients (stable donepezil or rivastigmine), 1 mg daily dose, Week 12
[10] = Add-On patients (stable donepezil or rivastigmine), 1 mg daily dose, Week 18
[11] = Add-On patients (stable donepezil or rivastigmine), 1 mg daily dose, Week 23
[12] = Add-On patients (stable donepezil or rivastigmine), 2 mg daily dose, Week 4
[13] = Add-On patients (stable donepezil or rivastigmine), 2 mg daily dose, Week 12
[14] = Add-On patients (stable donepezil or rivastigmine), 2 mg daily dose, Week 18
[15] = Add-On patients (stable donepezil or rivastigmine), 2 mg daily dose, Week 23
[16] = de novo patients, 0.3 mg daily dose, Week 4
[17] = de novo patients, 0.3 mg daily dose, Week 12
[18] = de novo patients, 0.3 mg daily dose, Week 18
[19] = de novo patients, 0.3 mg daily dose, Week 23
[20] = de novo patients, 1 mg daily dose, Week 4
[21] = de novo patients, 1 mg daily dose, Week 12
[22] = de novo patients, 1 mg daily dose, Week 18
[23] = de novo patients, 1 mg daily dose, Week 23
[24] = de novo patients, 2 mg daily dose, Week 4
[25] = de novo patients, 2 mg daily dose, Week 12
[26] = de novo patients, 2 mg daily dose, Week 18
[27] = de novo patients, 2 mg daily dose, Week 23

## Cl.O.O=C(N[C@H]1CN2CCC1CC2)c1cc2cccc(Cl)c2s1 [Test Compound, (R)-7-chloro-N-(quinuclidin-3-yl)benzo[b]thiophene-2-carboxamide, hydrochloride, monohydrate]
[1]
  COWAT Effect Size: 0.35
[2]; 0.3 mg daily dose, Week 4
  CDR-SB (Baseline was assigned the value of zero @ Week 0): 0.0026
[2]; 0.3 mg daily dose, Week 12
  CDR-SB (Baseline was assigned the value of zero @ Week 0): 0.0542
[2]; 0.3 mg daily dose, Week 18
  CDR-SB (Baseline was assigned the value of zero @ Week 0): 0.2325
[2]; 0.3 mg daily dose, Week 23
  CDR-SB (Baseline was assigned the value of zero @ Week 0): 0.4427
[2]; 1 mg daily dose, Week 4
  CDR-SB (Baseline was assigned the value of zero @ Week 0): −0.2365
[2]; 1 mg daily dose, Week 12
  CDR-SB (Baseline was assigned the value of zero @ Week 0): −0.0811
[2]; 1 mg daily dose, Week 18
  CDR-SB (Baseline was assigned the value of zero @ Week 0): −0.0424
[2]; 1 mg daily dose, Week 23
  CDR-SB (Baseline was assigned the value of zero @ Week 0): 0.1214
[2]; 2 mg daily dose, Week 4
  CDR-SB (Baseline was assigned the value of zero @ Week 0): −0.1361
[2]; 2 mg daily dose, Week 12
  CDR-SB (Baseline was assigned the value of zero @ Week 0): −0.1352
[2]; 2 mg daily dose, Week 18
  CDR-SB (Baseline was assigned the value of zero @ Week 0): −0.1368
[2]; 2 mg daily dose, Week 23
  CDR-SB (Baseline was assigned the value of zero @ Week 0): −0.088
[2]; 2 mg dose versus Placebo
  CDR-SB Effect Size: 0.31
[2]; [4]
  CDR-SB (Baseline was assigned the value of zero @ Week 0): −0.2148
[2]; [5]
  CDR-SB (Baseline was assigned the value of zero @ Week 0): −0.1333
[2]; [6]
  CDR-SB (Baseline was assigned the value of zero @ Week 0): 0.0576
[2]; [7]
  CDR-SB (Baseline was assigned the value of zero @ Week 0): 0.4174
[2]; [8]
  CDR-SB (Baseline was assigned the value of zero @ Week 0): −0.2473
[2]; [9]
  CDR-SB (Baseline was assigned the value of zero @ Week 0): 0.1511
[2]; [10]
  CDR-SB (Baseline was assigned the value of zero @ Week 0): 0.2268
[2]; [11]
  CDR-SB (Baseline was assigned the value of zero @ Week 0): 0.476
[2]; [12]
  CDR-SB (Baseline was assigned the value of zero @ Week 0): −0.236
[2]; [13]
  CDR-SB (Baseline was assigned the value of zero @ Week 0): −0.2247
[2]; [14]
  CDR-SB (Baseline was assigned the value of zero @ Week 0): −0.1084
[2]; [15]
  CDR-SB (Baseline was assigned the value of zero @ Week 0): −0.1633
[2]; [16]
  CDR-SB (Baseline was assigned the value of zero @ Week 0): 0.0816
[2]; [17]
  CDR-SB (Baseline was assigned the value of zero @ Week 0): 0.1082
[2]; [18]
  CDR-SB (Baseline was assigned the value of zero @ Week 0): 0.27
[2]; [19]
  CDR-SB (Baseline was assigned the value of zero @ Week 0): 0.3392
[2]; [20]
  CDR-SB (Baseline was assigned the value of zero @ Week 0): −0.3161
[2]; [21]
  CDR-SB (Baseline was assigned the value of zero @ Week 0): −0.3858
[2]; [22]
  CDR-SB (Baseline was assigned the value of zero @ Week 0): −0.3763
[2]; [23]
  CDR-SB (Baseline was assigned the value of zero @ Week 0): −0.288
[2]; [24]
  CDR-SB (Baseline was assigned the value of zero @ Week 0): −0.133
[2]; [25]
  CDR-SB (Baseline was assigned the value of zero @ Week 0): −0.1475
[2]; [26]
  CDR-SB (Baseline was assigned the value of zero @ Week 0): −0.2625
[2]; [27]
  CDR-SB (Baseline was assigned the value of zero @ Week 0): −0.1239
[3]; 0.3 mg daily dose, Week 4
  ADAS-Cog-13 (Baseline was assigned the value of zero @ Week 0): −0.615
[3]; 0.3 mg daily dose, Week 12
  ADAS-Cog-13 (Baseline was assigned the value of zero @ Week 0): −0.5876
[3]; 0.3 mg daily dose, Week 18
  ADAS-Cog-13 (Baseline was assigned the value of zero @ Week 0): −0.3132
[3]; 0.3 mg daily dose, Week 23
  ADAS-Cog-13 (Baseline was assigned the value of zero @ Week 0): 0.0915
[3]; 1 mg daily dose, Week 4
  ADAS-Cog-13 (Baseline was assigned the value of zero @ Week 0): −0.8012
[3]; 1 mg daily dose, Week 12
  ADAS-Cog-13 (Baseline was assigned the value of zero @ Week 0): −1.2029
[3]; 1 mg daily dose, Week 18
  ADAS-Cog-13 (Baseline was assigned the value of zero @ Week 0): −0.3222
[3]; 1 mg daily dose, Week 23
  ADAS-Cog-13 (Baseline was assigned the value of zero @ Week 0): −0.0565
[3]; 2 mg daily dose, Week 4
  ADAS-Cog-13 (Baseline was assigned the value of zero @ Week 0): −0.0185
[3]; 2 mg daily dose, Week 12
  ADAS-Cog-13 (Baseline was assigned the value of zero @ Week 0): −1.4328
[3]; 2 mg daily dose, Week 18
  ADAS-Cog-13 (Baseline was assigned the value of zero @ Week 0): −1.6593
[3]; 2 mg daily dose, Week 23
  ADAS-Cog-13 (Baseline was assigned the value of zero @ Week 0): −1.6899
[3]; 2 mg dose versus Placebo
  ADAS-Cog 13 Effect Size: 0.39
[3]; [4]
  ADAS-Cog-13 (Baseline was assigned the value of zero @ Week 0): −0.9985
[3]; [5]
  ADAS-Cog-13 (Baseline was assigned the value of zero @ Week 0): −0.2474
[3]; [6]
  ADAS-Cog-13 (Baseline was assigned the value of zero @ Week 0): −0.4557
[3]; [7]
  ADAS-Cog-13 (Baseline was assigned the value of zero @ Week 0): 0.2752
[3]; [8]
  ADAS-Cog-13 (Baseline was assigned the value of zero @ Week 0): −1.0728
[3]; [9]
  ADAS-Cog-13 (Baseline was assigned the value of zero @ Week 0): −0.0705
[3]; [10]
  ADAS-Cog-13 (Baseline was assigned the value of zero @ Week 0): 0.6239
[3]; [11]
  ADAS-Cog-13 (Baseline was assigned the value of zero @ Week 0): 1.4205
[3]; [12]
  ADAS-Cog-13 (Baseline was assigned the value of zero @ Week 0): −0.455
[3]; [13]
  ADAS-Cog-13 (Baseline was assigned the value of zero @ Week 0): −0.9708
[3]; [14]
  ADAS-Cog-13 (Baseline was assigned the value of zero @ Week 0): −1.8659
[3]; [15]
  ADAS-Cog-13 (Baseline was assigned the value of zero @ Week 0): −1.1679
[3]; [16]
  ADAS-Cog-13 (Baseline was assigned the value of zero @ Week 0): −0.545
[3]; [17]
  ADAS-Cog-13 (Baseline was assigned the value of zero @ Week 0): −1.0759
[3]; [18]
  ADAS-Cog-13 (Baseline was assigned the value of zero @ Week 0): −0.4416
[3]; [19]
  ADAS-Cog-13 (Baseline was assigned the value of zero @ Week 0): −0.3226
[3]; [20]
  ADAS-Cog-13 (Baseline was assigned the value of zero @ Week 0): −0.5942
[3]; [21]
  ADAS-Cog-13 (Baseline was assigned the value of zero @ Week 0): −2.311
[3]; [22]
  ADAS-Cog-13 (Baseline was assigned the value of zero @ Week 0): −1.2239
[3]; [23]
  ADAS-Cog-13 (Baseline was assigned the value of zero @ Week 0): −1.4169
[3]; [24]
  ADAS-Cog-13 (Baseline was assigned the value of zero @ Week 0): 0.3542
[3]; [25]
  ADAS-Cog-13 (Baseline was assigned the value of zero @ Week 0): −1.9196
[3]; [26]
  ADAS-Cog-13 (Baseline was assigned the value of zero @ Week 0): −1.5539
[3]; [27]
  ADAS-Cog-13 (Baseline was assigned the value of zero @ Week 0): −2.2283
